Where “and” joins values, the source holds several entries; their conditions need not be identical. Equal entries are not always repeated. Where two headings read alike, the source gives them in different places.
What was measured:
[1] = Brain-to-plasma ratio after intraperitoneal administration in male CD-1 mice (LC-MS/MS of plasma and brain homogenate); type: in vivo; conditions: for Kp at 1 h / Kp at 3 h / concentration at 1 h / concentration at 3 h: male, CD-1, mouse, ip; for Kp at 1 h / Kp at 3 h: brain/plasma
Procedure: (§1) In this study, the brain-to-plasma ratio of compounds of the invention was evaluated after intraperitoneal dosing in fasted male CD-1 mice. Test compounds were dosed at 50 mg/kg in sterile water for injection. Plasma and brain homogenate levels were determined at 1 and 3 hours post dose by LC-MS/MS. […] Penetration of the present compounds through the blood-brain barrier allows the compounds to exerts their receptor binding activity to achieve the therapeutic effects.
All data are expressed as ng/mL (equivalent to ng/g for calculation of brain:plasma ratio) of the free drug. Samples that were below the limit of quantitation were not used in the calculation of averages.
Brain-to-plasma ratios were determined by dividing the brain concentration in ng/g by the plasma concentration in ng/g.
Brain samples were homogenized with a Virsonic 100 ultrasonic homogenizer. Each brain sample was first weighed, and then an appropriate volume of 20:80 methanol:water was added to make a 4 mL/1 gram sample. Samples were then homogenized on ice, and stored frozen until analysis.
Standards samples were prepared in either CD-1 Mouse plasma containing K2EDTA as an anticoagulant or CD-1 mouse brain homogenate. Working solutions (200 μg/mL and/or 20 μg/mL for each test compound) was prepared in 50:50 ACN:water. Then, a nine-point calibration curve was prepared at concentrations of 2000, 1500, 1000, 500, 100, 50, 20, 10, and 5 ng/mL of each test compound by serial dilution; or for a high-sensitivity method, another nine point calibration curve was prepared at concentrations of 200, 150, 100, 50, 10, 5, 2, 1, and 0.5 ng/mL of each test compound by serial dilution. Standard samples were treated identically to the study samples.
Plasma and brain homogenate samples were extracted via acetonitrile precipitation on a Tomtec Quadra 96-Model 320 liquid handling system in a 96-well plate format.
HPLC Conditions • Instrument: Perkin Elmer series 200 micropumps and Autosampler • Column: Phenomenex Synergi Polar-RP, 4μ, 80A, 50×2.0 mm • Mobile Phase Buffer: 40 mM ammonium formate, pH 3.5 • Aqueous Reservoir (A): 10% buffer, 90% water • Organic Reservoir (B): 10% buffer, 90% acetonitrile • Gradient Program:
• Flow Rate: 400 μL/min • Injection Volume: […], • Run Time: 5.0 min • Column Temperature: ambient • Autosampler Wash Solution #1: ACN:IPA:H2O 40:30:30 (v/v/v) w/0.2% formic acid • Autosampler Wash Solution #2: MeOH:H2O 50:50 (v/v) Mass Spectrometer Conditions (for Calibration Curve from 5 to 2000 ng/mL) • Instrument: PE Sciex API 4000 • Interface: Electrospray (“Turbo Ion Spray”) • Mode: Multiple Reaction Monitoring (MRM) • Gases: CUR 20, GS1 20, GS2 10, CAD Medium, IS 5200 • Source Temperature: 500° C., ihe OFF • Voltages and Ions Monitored*:
Mass Spectrometer Conditions (for Calibration Curve from 0.5 to 200 ng/mL, High Sensitivity Method) • Instrument: PE Sciex API 4000 Q TRAP • Interface: Electrospray (“Turbo Ion Spray”) • Mode: Multiple Reaction Monitoring (MRM) • Gases: CUR 20, GS1 20, GS2 10, CAD Medium, IS 5200 • Source Temperature: 500° C., ihe OFF • Voltages and Ions Monitored*: […]

[2] = Observations and adverse reactions after intraperitoneal administration in CD-1 mice; type: in vivo; conditions: IP 50 mg/kg
Procedure: as §1

[3] = 1.0 hr after IP dosing at 50 mg/kg, individual fasted male CD-1 mice, 50 mg/kg
[4] = 1.0 hr after IP dosing at 50 mg/kg, individual mice, 50 mg/kg
[5] = 1.0 hr after IP dosing at 50 mg/kg, mean of mice, 50 mg/kg
[6] = 3.0 hr after IP dosing at 50 mg/kg, individual fasted male CD-1 mice, BLQ = below 0.5 ng/mL, 50 mg/kg
[7] = 3.0 hr after IP dosing at 50 mg/kg, individual mice, 50 mg/kg
[8] = 50 mg/kg, 1.0 hr after IP dosing at 50 mg/kg, mean of mice, read-out: Average B:P Ratio
[9] = 50 mg/kg, 3.0 hr after IP dosing at 50 mg/kg, individual mice, read-out: B:P Ratio
[10] = 50 mg/kg, 3.0 hr after IP dosing at 50 mg/kg, mean of mice (Compound-3: one animal only), read-out: Average B:P Ratio
[11] = plasma, 50 mg/kg, 1.0 hr after IP dosing at 50 mg/kg, individual mice, read-out: Plasma Conc

SMILES	Brain Tissue Homogen. Conc [1, 3]	B:P Ratio [1, 4]	Brain Tissue Conc [1, 4]	Plasma Conc [1, 4]	Average B:P Ratio [1, 5]	Brain Tissue Homogen. Conc [1, 6]	Plasma Conc [1, 7]	Kp at 1 h [1, 8]	Kp at 3 h [1, 9]	Kp at 3 h [1, 10]	concentration at 1 h [1, 11] [ng/mL]	Adverse effects after intraperitoneal administration [2]	other results
COCCN(CCOC)c1ccc(C(C)c2ccc(N(CCOC)CCOC)cc2)cc1 [Compound-2, 4,4′-(ethane-1,1-diyl)bis(N,N-bis(2-methoxyethyl)aniline)]	41.6 µg/mL and 122 µg/mL and 25.2 µg/mL	0.58 and 0.99 and 0.34	208 µg/mL and 610 µg/mL and 126 µg/mL	614 ng/mL and 369 ng/mL	0.638	26.3 µg/mL and 12.2 µg/mL and 6.22 µg/mL	202 ng/mL and 108 ng/mL and 63.1 ng/mL	0.638 ± 0.33	0.65	0.57 ± 0.079	359	No adverse effects were observed	B:P Ratio [1, 7]: 0.56 and 0.49; Brain Tissue Conc [1, 7]: 132 µg/mL and 61.0 µg/mL and 31.1 µg/mL; Average B:P Ratio ([1]; 3.0 hr after IP dosing at 50 mg/kg, mean of mice (Compound-3: one animal only), 50 mg/kg): 0.570
CC(c1ccc(N(CCO)CCO)cc1)c1ccc(N(CCO)CCO)cc1 [Compound-3, 2,2′,2″,2′″-((ethane-1,1-diylbis(4,1-phenylene))bis(azanetriyl))-tetraethanol]	2.87 µg/mL and 2.24 µg/mL	0.27 and 0.36	14.4 µg/mL and 11.2 µg/mL	52.6 ng/mL and 30.9 ng/mL	0.328	BLQ	2.02 ng/mL and 1.67 ng/mL	0.328 ± 0.048	1.14	1.14	31.8	No adverse effects were observed	Average B:P Ratio ([1]; 3.0 hr after IP dosing at 50 mg/kg, mean of mice (Compound-3: one animal only)): 1.14; concentration at 1 h ([1]; brain homogenate, 50 mg/kg, 1.0 hr after IP dosing at 50 mg/kg, individual fasted male CD-1 mice, read-out: Brain Tissue Homogen. Conc): 2210 ng/mL; concentration at 3 h ([1]; brain homogenate, 50 mg/kg, 3.0 hr after IP dosing at 50 mg/kg, individual fasted male CD-1 mice, BLQ = below 0.5 ng/mL, read-out: Brain Tissue Homogen. Conc): 611 ng/mL; concentration at 1 h ([1]; brain, 50 mg/kg, 1.0 hr after IP dosing at 50 mg/kg, individual mice, read-out: Brain Tissue Conc): 11100 ng/mL; concentration at 3 h ([1]; brain, 50 mg/kg, 3.0 hr after IP dosing at 50 mg/kg, individual mice, read-out: Brain Tissue Conc): 3060 ng/mL; Kp at 1 h ([1]; 50 mg/kg, 1.0 hr after IP dosing at 50 mg/kg, individual mice, read-out: B:P Ratio): 0.35; concentration at 3 h ([1]; plasma, 50 mg/kg, 3.0 hr after IP dosing at 50 mg/kg, individual mice, read-out: Plasma Conc): 2.67 ng/mL
